pEC50: −log10 of the molar value. Entries after “also recorded” stand apart in the source; their conditions may differ. Where two headings read alike, the source gives them in different places.
Columns and labels:
HSV = assay: Anti-HSV SAR summary, HSV type not separated; format: cell-based, herpes simplex virus; details: grouped by activity at 50, 5 and 0.5 μM
Experimental: (§1) Compounds to be screened were diluted in PBS supplemented to contain 2% newborn calf serum and 1% glutamine, and added in 100 μL volume to confluent cell monolayers in 24-well cluster plates. Immediately thereafter HSV-1 and HSV-2, diluted in the supplemented PBS medium, were added to the wells in 50 μl volume such that the final concentration of compound was 50 μM and 5 μM and the multiplicity of infection was 0.1. The plates were incubated at 37° C. for 1 hour and then virus-containing inoculum was removed and the wells were washed once in PBS. Compounds, diluted to 50 μM and 5 μM in DMEM supplemented to contain 2% newborn calf serum and 1% each penicillin/streptomycin, were added at 0.5 mL/well. Plates were incubated at 37° C. an additional 23 hr, and then the plates were visually inspected through a phase contrast microscope for cytopathic effect, and for toxic effect. […] The entire contents of each well were collected by scraping. Samples were frozen at −80° C., and then subsequently thawed, sonicated, and infectious virus titer was determined by standard plaque assay on Vero cell monolayers. Because the compounds were dissolved at 10 mM in 100% DMSO, equivalent dilutions of DMSO were added to additional wells as a control for effects of the diluent. Each experiment was repeated once. EC50 values were determined as above except that serial dilutions of the compound to be tested were prepared starting at 50 μM. The inhibitory values were calculated by non-linear curve-fitting in GraphPad Prism.
A series of over 20 synthetic αHTs were synthesized and tested to both confirm the initial SAR, and to provide leads for further optimization pursuits (FIG. 5). […] Specifically, biphenyl-containing molecules #118 and 115 inhibit HSV replication by up to 4 log10 at 200 nM. The increased potency over close analogs #111 and 113 confirmed the importance of added lipophilicity.

HSV-2 [1] = assay: Anti-HSV-2 replication assay in Vero cells, titers by plaque assay; format: cell-based, herpes simplex virus 2; details: for log reduction at 5 µM / log reduction at 50 µM: Human alphaherpesvirus 2, Vero, 24 h; for log reduction at 5 µM: read-out: HSV-2 Log suppression 5 μM; for log reduction at 50 µM: read-out: HSV-2 Log suppression 50 μM
HSV-2 [2] = details: 5 μM or less; cited from earlier work
HSV-1 [3] = details: 5 μM or less; cited from earlier work
[4] = Quantitative Vero cell toxicity (MTT); format: cell-based; details: African green monkey, Vero cells
Experimental: (§2) Qualitative assessments of cytotoxicity were done visually by inspecting the cells in the primary screening assays. For the quantitative assays, cells were plated in 96-well plates at 1.0×10^4 per well. The next day the compounds were added at 0.78 to 100 μM in a final concentration of 1% (v/v) DMSO, and the cells were incubated for 24 hours under conditions identical to those employed for the viral replication inhibition assays. Mitochondrial toxicity was measured by incubating the cells with 0.25 mg/mL thiazolyl blue tetrazolium bromide (MTT, Sigma Aldrich Chemical Co.), the cultures were incubated for 60 min, metabolites were solubilized in acidic isopropanol, and absorbance was read at 570 nm. CC50 values were calculated by non-linear curve fitting using GraphPad Prism.
Quantitative toxicity measurements were conducted for all compounds that suppressed HSV replication by >2 log10 at 5 μM plus a number of compounds with lesser inhibitory activity for comparison. Toxicity was assessed by […]. Cells were plated in 96-well plates at 1.0×10^4 per well. The next day compound was added in concentrations ranging from 0.78 to 100 μM in a final concentration of 1% (v/v) DMSO. The cells were incubated for 24 h under conditions identical to those employed for the viral replication inhibition assays, and then mitochondrial activity was measured with the MTT assay (Sigma Aldrich) according to the manufacturer's instructions. Percent viability was determined for each compound concentration from the […], and then 50% cytotoxic concentrations (CC50) values were calculated by non-linear curve fitting using GraphPad Prism. Consistent with the subjective assessments of toxicity, all compounds selected for quantitative toxicity assessment had CC50 values≥50 μM under these conditions (Table 1).

HSV-1 [5] = assay: Anti-HSV-1 replication assay in Vero cells, titers by plaque assay; format: cell-based, herpes simplex virus 1; details: for log reduction at 5 µM: read-out: HSV-1 Log suppression 5 μM; for log reduction at 50 µM: read-out: HSV-1 Log suppression 50 μM
Experimental: Vero cells were maintained in Dulbecco's modified Eagle's medium (DMEM) containing 3% newborn calf serum, 3% bovine growth serum, 2 mM L-glutamine and 100 IU/mL penicillin and 0.1 mg/mL streptomycin (P/S). HSV-1 #6 and HSV-2 #1 are de-identified clinical isolates from the Saint Louis University Hospital. Stocks were prepared after a single passage in cell culture and were titered by standard plaque assay (Knipe and Spang, 1982). Wild-type HSV-2 used in FIG. 3 was laboratory strain 333. […] Virus stocks were grown and titered on Vero cells (Morrison and Knipe, 1996).
as §1

[6] = Cytotoxicity reported with the HBV assay (Table 4); format: cell-based; details: human, hepatoma cells; read-out: CC50 (HBV assay table)
Experimental: as §2

HBV = HBV replication assay in HepDES19 cells; format: cell-based; details: Hepatitis B virus
Experimental: HBV replication assay. Inhibition of HBV replication was measured in HepDES19 cells as previously described (Cai, et al., 2014). Cells were seeded into 6-well plates and incubated in DMEM/F12, 10% fetal bovine serum (FBS), 1% penicillin/streptomycin (P/S) with 1 μg/ml tetracycline. Tetracycline was withdrawn after 24 hours. The test compound was applied to duplicate wells 48 hours later in medium containing a final DMSO concentration of 1%, and medium containing the compound was refreshed daily for the following two days. Cells were harvested and non-encapsidated nucleic acids were digested with micrococcal nuclease (New England Biolabs). HBV DNA was purified from capsids using QIAamp Cador Pathogen Mini Kit (Qiagen) with proteinase K incubation overnight at 37° C. TaqMan PCR was performed for 40 cycles at an annealing temperature of 60° C. Primers and probe (IDT Inc.) for the plus-polarity strand were: 5′[…]3′ (SEQ ID NO: 1); 5′[…]3′ (SEQ ID NO: 2); 5′/56-FAM/[…]/ZEN/[…]/3IABkFQ (SEQ ID NO: 3). Primers and probe for the minus-polarity strand were: 5′[…]3′ (SEQ ID NO: 4); 5′[…]3′ (SEQ ID NO: 5); 5′/56-FAM/[…]/ZEN/[…]/3IABkFQ (SEQ ID NO: 6).

[7] = Mouse liver microsome assay; format: in vitro ADME; details: 1 μM in mouse liver microsomes; for half-life at 1 μM: read-out: t ½; for ER: extraction ratio
Experimental: Microsomal incubations are run at a final P450 concentration of 0.25 μM. The microsomal mixture is composed of 0.1M potassium phosphate containing 3.3 mM MgCl and 1 μM compound (final concentration). The mixture is prewarmed for 5 min at 37° C. To initiate the reaction a 12 mM stock of NAPDH (1.2 mM, final concentration) is added to the warmed microsomal mixture and aliquots are removed at 0, 5, 10, 20 and 30 min. Samples are quenched with ice cold acetonitrile containing internal standard and either 1.8 mM EDTA or EGTA (final concentration). Samples are vortexed and spun down at 3200 rpm for 5 min. The supernant is transferred to 96-deep well plates and run on LC/MS/MS.

[8] = Human alphaherpesvirus 1, Vero, 24 h
[9] = HepDES19 cells, read-out: EC50 (HBV assay)

Row | Structure (SMILES) | anti-HSV SAR group, in words (HSV) | log reduction at 5 µM (HSV-2 [1]) | suppression of HSV-2 replication in cell culture, in words (HSV-2 [2]) | suppression of HSV-1 replication in cell culture, in words (HSV-1 [3]) | CC50 at 24 h [4] | log reduction at 5 µM (HSV-1 [5]; [8]) | CC50 at 24 h [6] | pEC50 (HBV; [9]) | log reduction at 50 µM (HSV-2 [1]) | log reduction at 50 µM (HSV-1 [5]; [8]) | Non-P450 turn-over [7] | half-life at 1 μM [7] | ER [7] | HSV-2 inhibition, fold (HSV-2 [1]; 5 μM) | HSV-1 inhibition, fold (HSV-1 [5]; 5 μM) | pEC50 (HSV-1 [5]; Human alphaherpesvirus 1, Vero, 24 h, read-out: HSV-1 EC50) | pEC50 (HBV; HepDES19, read-out: EC50 (HBV assay))
1 | Cc1cc(O)c(=O)c(O)cc1C(=O)c1ccccc1 [Compound 111] | fully inhibitory at 5 μM | 3.21 | strongly suppress | strongly suppress | > 50 µM | 4.28 | 31 µM | – | – | – | – | – | – | – | – | – | –
2 | Cc1cc(O)c(=O)c(O)cc1-c1ccccc1 [Compound 113] | – | 2.07 | – | – | > 100 µM | 2.27 | – | 5.38 | 5.61 | 5.38 | – | – | – | – | – | – | –
3 | Cc1cc(O)c(=O)c(O)cc1-c1ccc(Br)cc1 [Compound 114] | – | 3.92 | – | – | > 100 µM | 4.8 | – | – | 5.26 | 4.75 | – | – | – | – | – | – | –
4 | Cc1cc(O)c(=O)c(O)cc1-c1cccc(Br)c1 [Compound 119] | – | 5.02 | – | – | 72.4 µM | 5.19 | 81 µM | 5.19 | 4.88 | 5.28 | – | – | – | – | – | – | –
5 | Cc1cc(O)c(=O)c(O)cc1C(=O)C1CCCCC1 [Compound 120] | fully inhibitory at 5 μM | 5.41 | strongly suppress | strongly suppress | ~50 µM | 4.84 | 24 µM | – | 5.07 | 5.53 | – | – | – | – | – | – | –
6 | Cc1cc(O)c(=O)c(O)cc1C(=O)C(C)C [Compound 143] | weakest inhibitors | 0 | strongly suppress | strongly suppress | – | 0.25 | > 100 µM | 5.22 | 4.78 | 5.93 | – | – | – | – | – | – | –
7 | Cc1cc(O)c(=O)c(O)cc1-c1ccc(C(F)(F)F)cc1 [Compound 145] | – | 4.05 | – | – | > 100 µM | 3.96 | – | – | 4.33 | 3.97 | – | – | – | – | – | – | –
8 | Cc1cc(O)c(=O)c(O)cc1-c1cccc2ccccc12 [Compound 146] | highly inhibitory at much lower concentrations; also recorded: fully inhibitory at 0.5 μM | 5.66 | – | – | > 100 µM | 5.68 | 12 µM | 5.64 | 5.29 | 6.2 | No | > 2 h | <0.1 | 457,100 fold | 478,600 fold | 6.35 | –
9 | Cc1cc(O)c(=O)c(O)cc1-c1ccc2ccccc2c1 [Compound 147] | – | 4.33 | – | – | 74.8 µM | 5.92 | – | – | 4.12 | 5.81 | No | > 2 h | <0.1 | – | – | – | –
10 | O=c1c(O)ccccc1O [Compound 172] | moderate inhibitors | 1.8 | – | – | > 100 µM | 3.31 | > 100 µM | – | 4.64 | 4.11 | – | – | – | – | – | – | 5.68
11 | Cc1cc(O)c(=O)c(O)cc1C(=O)CC1CCCCC1 [Compound 173] | fully inhibitory at 5 μM | 5.32 | – | – | > 100 µM | 5.91 | 22 µM | 5.17 | 5.94 | 5.8 | – | – | – | – | – | – | –

Reference: patent publication US11420922B2, “Hydroxylated tropolone inhibitors of nucleotidyl transferases in herpesvirus and Hepatitis B and uses therefor” (Saint Louis University, priority 2015, dated 2022)
